Laboratory results as given in PubChem BioAssay (NCI).
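The compound was tested at five concentrations on cells cultured in 96-well plates, with a 48-hour exposure period. The concentration for 50% growth inhibition is given as GI50. The concentration for full growth arrest is given as TGI.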

What was measured:
Test in all cases: DTP human tumour cell line panel, 48 h
[1] = test system: A498 renal
[2] = test system: M14 melanoma
[3] = test system: OVCAR-4 ovarian
[4] = test system: OVCAR-3 ovarian
[5] = test system: ACHN renal
[6] = test system: PC-3 prostate
[7] = test system: UACC-62 melanoma
[8] = test system: T-47D breast
[9] = test system: OVCAR-5 ovarian
[10] = test system: SK-MEL-28 melanoma
[11] = test system: K-562 leukemia
[12] = test system: MOLT-4 leukemia
[13] = test system: A549 NSCLC
[14] = test system: SW-620 colon
[15] = test system: SN12C renal
[16] = test system: HS 578T breast
[17] = test system: IGROV1 ovarian
[18] = test system: MCF7 breast
[19] = test system: HCT-116 colon
[20] = test system: HOP-62 NSCLC
[21] = test system: NCI-H522 lung
[22] = test system: HOP-92 NSCLC
[23] = test system: NCI-H460 lung
[24] = test system: SK-MEL-5 melanoma
[25] = test system: TK-10 renal
[26] = test system: SF-268 CNS
[27] = test system: SF-295 CNS
[28] = test system: CCRF-CEM leukemia
[29] = test system: SNB-19 CNS
[30] = test system: HL-60(TB) leukemia
[31] = test system: SK-OV-3 ovarian
[32] = test system: KM12 colon
[33] = test system: NCI-H226 lung
[34] = test system: UACC-257 melanoma
[35] = test system: HCT-15 colon
[36] = test system: MALME-3M melanoma
[37] = test system: CAKI-1 renal
[38] = test system: BT-549 breast
[39] = test system: RXF 393 renal
[40] = test system: HT29 colon
[41] = test system: UO-31 renal
[42] = test system: LOX IMVI melanoma
[43] = test system: EKVX NSCLC
[44] = test system: MDA-MB-435
[45] = test system: 786-0 renal
[46] = test system: NCI-H23 lung
[47] = test system: SNB-75 CNS
[48] = test system: HCC-2998 colon
[49] = test system: SK-MEL-2 melanoma
[50] = test system: OVCAR-8 ovarian
[51] = test system: COLO 205 colon
[52] = test system: SF-539 CNS
[53] = test system: DU-145 prostate
[54] = test system: MDA-MB-231 breast
[55] = test system: U251 CNS
[56] = test system: NCI/ADR-RES ovarian

CCCCCCCCCCCCCCCC(=O)OCC1OC(n2cnc3c(=S)nc(N)[nH]c32)C(OC(=O)CCCCCCCCCCCCCCC)C1OC(=O)CCCCCCCCCCCCCCC (configuration not stated)
GI50 [1]: > 25.1 µM | TGI [1]: > 50 µM | GI50 [2]: 1.5 µM | TGI [2]: > 17.9 µM | GI50 [3]: > 19.5 µM | TGI [3]: > 50 µM | GI50 [4]: 6.16 µM | TGI [4]: > 47.3 µM | GI50 [5]: 11.8 µM | TGI [5]: > 50 µM | GI50 [6]: 9.96 µM | TGI [6]: > 50 µM | GI50 [7]: 3.35 µM | TGI [7]: > 21.5 µM | GI50 [8]: 2 µM | TGI [8]: > 50 µM | GI50 [9]: 3.4 µM | TGI [9]: > 39.3 µM | GI50 [10]: > 39 µM | TGI [10]: > 50 µM | GI50 [11]: 2.05 µM | TGI [11]: > 50 µM | GI50 [12]: 2.95 µM | TGI [12]: > 50 µM | GI50 [13]: > 37.2 µM | TGI [13]: > 50 µM | GI50 [14]: 11.1 µM | TGI [14]: > 50 µM | GI50 [15]: 18.3 µM | TGI [15]: > 50 µM | GI50 [16]: 13 µM | TGI [16]: > 50 µM | GI50 [17]: 22.7 µM | TGI [17]: > 50 µM | GI50 [18]: 1.65 µM | TGI [18]: > 26.1 µM | GI50 [19]: 1.8 µM | TGI [19]: > 50 µM | GI50 [20]: 1.78 µM | TGI [20]: > 35 µM | GI50 [21]: 4.82 µM | TGI [21]: > 47.4 µM | GI50 [22]: 3.85 µM | TGI [22]: > 50 µM | GI50 [23]: 2.8 µM | TGI [23]: > 22.6 µM | GI50 [24]: > 47 µM | TGI [24]: > 50 µM | GI50 [25]: 1.99 µM | TGI [25]: > 50 µM | GI50 [26]: 7.9 µM | TGI [26]: > 50 µM | GI50 [27]: 1.63 µM | TGI [27]: 24.4 µM | GI50 [28]: 1.85 µM | TGI [28]: > 50 µM | GI50 [29]: > 50 µM | TGI [29]: > 50 µM | GI50 [30]: > 35.6 µM | TGI [30]: > 50 µM | GI50 [31]: 1.55 µM | TGI [31]: > 27.8 µM | GI50 [32]: 9.48 µM | TGI [32]: > 50 µM | GI50 [33]: 8.59 µM | TGI [33]: > 50 µM | GI50 [34]: > 50 µM | TGI [34]: > 50 µM | GI50 [35]: 6.17 µM | TGI [35]: > 50 µM | GI50 [36]: > 28.3 µM | TGI [36]: > 50 µM | GI50 [37]: 1.05 µM | TGI [37]: > 14.8 µM | GI50 [38]: > 50 µM | TGI [38]: > 50 µM | GI50 [39]: 8.09 µM | TGI [39]: > 50 µM | GI50 [40]: 3.22 µM | TGI [40]: > 50 µM | GI50 [41]: 9.49 µM | TGI [41]: > 50 µM | GI50 [42]: 1.54 µM | TGI [42]: > 50 µM | GI50 [43]: 6.15 µM | TGI [43]: > 50 µM | GI50 [44]: 3.68 µM | TGI [44]: > 50 µM | GI50 [45]: 2.46 µM | TGI [45]: > 50 µM | GI50 [46]: 12.9 µM | TGI [46]: > 50 µM | GI50 [47]: 4.38 µM | TGI [47]: > 50 µM | GI50 [48]: 6.88 µM | TGI [48]: > 50 µM | GI50 [49]: 4.39 µM | TGI [49]: 28.4 µM | GI50 [50]: 3.42 µM | TGI [50]: > 50 µM | GI50 [51]: 7.39 µM | TGI [51]: 35.8 µM | GI50 [52]: 6.95 µM | TGI [52]: > 50 µM | GI50 [53]: 1.98 µM | TGI [53]: > 50 µM | GI50 [54]: 2.66 µM | TGI [54]: > 22.1 µM | GI50 [55]: 24.1 µM | TGI [55]: > 50 µM | GI50 [56]: 4.46 µM | TGI [56]: > 50 µM
